How the values were obtained:
[1] = test system: patients with prostate cancer; experiment: Phase II clinical trial: Taxotere with or without calcitriol by HDPA, cardiovascular events; assay type: in vivo, human; conditions: 125 patients per arm; calcitriol three 15 μg capsules once a week on the day prior to Taxotere 75 mg/m^2
Source text: Two hundred fifty patients with prostate cancer were enrolled at 58 centers in the United States and Canada. All patients in the study received chemotherapy treatment with Taxotere®, a drug in the taxoid class of chemotherapeutic agents. […] Oral dexamethasone is also given along with the Taxotere® to minimize certain side effects (allergic reactions and fluid retention) associated with Taxotere®.
In addition to Taxotere® and dexamethasone, half of the patients were randomly treated with calcitriol and the other half received a placebo. Calcitriol was administered as three capsules of 15 μg each once a week on the day prior to chemotherapy. […] The same Taxotere® doses of 75 mg/m^2 body surface area were administered to the patients receiving Taxotere® alone or Taxotere® in combination with calcitriol.

thrombomodulin (“TM”) = conditions: in vitro, cultured monocytic cells including human peripheral monocytes; cited from earlier work
TF = conditions: in vitro, cultured monocytic cells including human peripheral monocytes; cited from earlier work
[2] = test system: women with metastatic breast cancer; conditions: cited from earlier work
[3] = test system: patients suffering from non-small-cell carcinoma of the lung; conditions: in vivo, sc; cited from earlier work
[4] = test system: venous thromboembolism (VTE); conditions: in vivo; cited from earlier work
[5] = test system: patients receiving heparin; conditions: cited from earlier work

Compound: CC(=O)O[C@@]12CO[C@@H]1C[C@H](O)[C@@]1(C)C(=O)[C@H](O)C3=C(C)[C@@H](OC(=O)[C@H](O)[C@@H](NC(=O)OC(C)(C)C)c4ccccc4)C[C@@](O)([C@@H](OC(=O)c4ccccc4)[C@H]21)C3(C)C [Taxotere®]
- Patients who developed deep vein thrombosis or thrombophlebits [1]: six of 125
- Patients who developed myocardial infractions or myocardial ischemia [1]: two of 125
- Patients who had a stroke (cerebrovascular events) [1]: two of 125

Compound: C=C1/C(=C\C=C2/CCC[C@]3(C)[C@@H]([C@H](C)CCCC(C)(C)O)CC[C@@H]23)C[C@@H](O)C[C@@H]1O [calcitriol, 1α,25-dihydroxyvitamin D3]
- Expression of the anticoagulant thrombomodulin (thrombomodulin (“TM”)): up-regulating the expression
- Expression of TF (TF): down-regulating the expression

Compound: epoetin alfa: erythropoiesis-stimulating agent, FDA-approved drug EPOGEN
- Kaplan-Meier estimated 12-month survival rate ([2]; in vivo): 70%
- Mortality at 4 months ([2]; weekly epoetin alfa for up to a year, interim results): 8.7%
- Rate of fatal thrombotic events ([2]; weekly epoetin alfa, interim results): 1.1%
- Median survival versus placebo [3]: significant difference in the median survival in favor of patients on the placebo arm

Compound: erythropoietin: erythropoiesis-stimulating agent
- Association with VTE [4]: significantly associated with VTE

Compound: heparin
- Patients with immunologic reaction resulting in heparin-induced thrombocytopenia (HIT), average [5]: 5%
